Test results from ChEMBL document CHEMBL3046894, “Synthesis and Herbicidal Activity of Pyrimidinyl Salicylic and Thiosalicylic Acids” (J Pestic Sci, 1996).
The source made the active and inactive calls. The rule behind the calls is not given here.

Assays:
Xanthium strumarium [1] = assay: Pre-emergence herbicidal activity against Xanthium strumarium (cocklebur) assessed as mortality per 10 acre; format: functional
Echinochloa crus-galli [2] = assay: Post-emergence herbicidal activity against Echinochloa crus-galli (barnyard grass) assessed as mortality per 10 acre; format: functional
Persicaria nodosa [3] = assay: Post-emergence herbicidal activity against Persicaria nodosa assessed as mortality per 10 acre; format: functional
Xanthium strumarium [4] = assay: Post-emergence herbicidal activity against Xanthium strumarium (cocklebur) assessed as mortality at 1.6 g a.i/10 a applied 11 days after germination as foliar spray; format: functional; settings: 264 h
Gossypium hirsutum [5] = assay: Post-emergence phytotoxicity against Gossypium hirsutum (cotton) assessed as mortality per 10 acre; format: organism-based; settings: in vivo
Abutilon theophrasti [6] = assay: Post-emergence herbicidal activity against Abutilon theophrasti (velvetleaf) assessed as mortality at 1.6 g a.i/10 a applied 11 days after germination as foliar spray; format: functional; settings: 264 h
Gossypium hirsutum [7] = assay: Pre-emergence phytotoxicity against Gossypium hirsutum (cotton) assessed as mortality at 1.6 g a.i/10 a; format: organism-based; settings: in vivo, other
Zea mays [8] = assay: (§1) Pre-emergence phytotoxicity against Zea mays (maize) assessed as mortality at 1.6 g a.i/10 a; format: organism-based; settings: in vivo, other
Glycine max [9] = assay: (§2) Post-emergence phytotoxicity against Glycine max (soybean) assessed as mortality at 1.6 g a.i/10 a applied 11 days after germination as foliar spray; format: organism-based; settings: in vivo, other, 264 h
Zea mays [10] = assay: Pre-emergence phytotoxicity against Zea mays (maize) assessed as mortality at 6.3 g a.i/10 a; format: organism-based; settings: in vivo, other
Echinochloa crus-galli [11] = assay: Pre-emergence herbicidal activity against Echinochloa crus-galli (barnyard grass) assessed as mortality per 10 acre; format: functional
Ipomoea lacunosa [12] = assay: Pre-emergence herbicidal activity against Ipomoea lacunosa assessed as mortality at 6.3 g a.i/10 a; format: functional; settings: Ipomoea lacunosa, pre-emergence
Cyperus iria [13] = assay: Post-emergence herbicidal activity against Cyperus iria assessed as growth inhibition at 25 g a.i/10 a applied 11 days after germination as foliar spray; format: functional, organism-based
Zea mays [14] = assay: (§3) Post-emergence phytotoxicity against Zea mays (maize) assessed as mortality at 1.6 g a.i/10 a applied 11 days after germination as foliar spray; format: organism-based; settings: in vivo, other, 264 h
Cyperus iria [15] = assay: Pre-emergence herbicidal activity against Cyperus iria assessed as growth inhibition at 25 g a.i/10 a; format: functional, organism-based
Amaranthus retroflexus [16] = assay: Pre-emergence herbicidal activity against Amaranthus retroflexus assessed as growth inhibition at 25 g a.i/10 a; format: functional, organism-based
Echinochloa crus-galli [17] = assay: Post-emergence herbicidal activity against Echinochloa crus-galli (barnyard grass) assessed as growth inhibition at 25 g a.i/10 a applied 11 days after germination as foliar spray; format: functional, organism-based
Persicaria nodosa [18] = assay: Post-emergence herbicidal activity against Persicaria nodosa assessed as growth inhibition at 25 g a.i/10 a applied 11 days after germination as foliar spray; format: functional, organism-based
Digitaria sanguinalis [19] = assay: Post-emergence herbicidal activity against Digitaria sanguinalis (hairy crabgrass) assessed as growth inhibition at 25 g a.i/10 a applied 11 days after germination as foliar spray; format: functional, organism-based
Xanthium strumarium [20] = assay: Pre-emergence herbicidal activity against Xanthium strumarium (cocklebur) assessed as mortality at 6.3 g a.i/10 a; format: functional; settings: Xanthium strumarium, pre-emergence
Gossypium hirsutum [21] = assay: Pre-emergence phytotoxicity against Gossypium hirsutum (cotton) assessed as mortality per 10 acre; format: organism-based; settings: in vivo
Glycine max [22] = assay: Pre-emergence phytotoxicity against Glycine max (soybean) assessed as mortality at 1.6 g a.i/10 a; format: organism-based; settings: in vivo, other
Persicaria nodosa [23] = assay: Pre-emergence herbicidal activity against Persicaria nodosa assessed as mortality per 10 acre; format: functional
Ipomoea lacunosa [24] = assay: Post-emergence herbicidal activity against Ipomoea lacunosa assessed as mortality at 1.6 g a.i/10 a applied 11 days after germination as foliar spray; format: functional; settings: 264 h
Abutilon theophrasti [25] = assay: Pre-emergence herbicidal activity against Abutilon theophrasti (velvetleaf) assessed as mortality at 1.6 g a.i/10 a; format: functional; settings: Abutilon theophrasti, pre-emergence
Echinochloa crus-galli [26] = assay: Pre-emergence herbicidal activity against Echinochloa crus-galli (barnyard grass) assessed as growth inhibition at 25 g a.i/10 a; format: functional, organism-based
Gossypium hirsutum [27] = assay: Pre-emergence phytotoxicity against Gossypium hirsutum (cotton) assessed as mortality at 6.3 g a.i/10 a; format: organism-based; settings: in vivo, other
Amaranthus retroflexus [28] = assay: Pre-emergence herbicidal activity against Amaranthus retroflexus assessed as mortality per 10 acre; format: functional
Glycine max [29] = assay: (§4) Pre-emergence phytotoxicity against Glycine max (soybean) assessed as mortality at 6.3 g a.i/10 a; format: organism-based; settings: in vivo, other
Ipomoea lacunosa [30] = assay: Pre-emergence herbicidal activity against Ipomoea lacunosa assessed as mortality per 10 acre; format: functional
Ipomoea lacunosa [31] = assay: Pre-emergence herbicidal activity against Ipomoea lacunosa assessed as mortality at 1.6 g a.i/10 a; format: functional; settings: Ipomoea lacunosa, pre-emergence
Amaranthus retroflexus [32] = assay: Post-emergence herbicidal activity against Amaranthus retroflexus assessed as growth inhibition at 25 g a.i/10 a applied 11 days after germination as foliar spray; format: functional, organism-based
Chenopodium album [33] = assay: Post-emergence herbicidal activity against Chenopodium album assessed as growth inhibition at 25 g a.i/10 a applied 11 days after germination as foliar spray; format: functional, organism-based
Amaranthus retroflexus [34] = assay: Post-emergence herbicidal activity against Amaranthus retroflexus assessed as mortality per 10 acre; format: functional
Ipomoea lacunosa [35] = assay: Post-emergence herbicidal activity against Ipomoea lacunosa assessed as mortality per 10 acre; format: functional
Digitaria sanguinalis [36] = assay: Pre-emergence herbicidal activity against Digitaria sanguinalis (hairy crabgrass) assessed as growth inhibition at 25 g a.i/10 a; format: functional, organism-based
Xanthium strumarium [37] = assay: Post-emergence herbicidal activity against Xanthium strumarium (cocklebur) assessed as mortality per 10 acre; format: functional
Abutilon theophrasti [38] = assay: Pre-emergence herbicidal activity against Abutilon theophrasti (velvetleaf) assessed as mortality at 6.3 g a.i/10 a; format: functional; settings: Abutilon theophrasti, pre-emergence
Persicaria nodosa [39] = assay: Pre-emergence herbicidal activity against Persicaria nodosa assessed as growth inhibition at 25 g a.i/10 a; format: functional, organism-based
Glycine max [40] = assay: Post-emergence phytotoxicity against Glycine max (soybean) assessed as mortality at 6.3 g a.i/10 a applied 11 days after germination as foliar spray; format: organism-based; settings: in vivo, other, 264 h
Gossypium hirsutum [41] = assay: Post-emergence phytotoxicity against Gossypium hirsutum (cotton) assessed as mortality at 6.3 g a.i/10 a applied 11 days after germination as foliar spray; format: organism-based; settings: in vivo, other, 264 h
Chenopodium album [42] = assay: Pre-emergence herbicidal activity against Chenopodium album assessed as growth inhibition at 25 g a.i/10 a; format: functional, organism-based
Gossypium hirsutum [43] = assay: Post-emergence phytotoxicity against Gossypium hirsutum (cotton) assessed as mortality at 1.6 g a.i/10 a applied 11 days after germination as foliar spray; format: organism-based; settings: in vivo, other, 264 h
Xanthium strumarium [44] = assay: Pre-emergence herbicidal activity against Xanthium strumarium (cocklebur) assessed as mortality at 1.6 g a.i/10 a; format: functional; settings: Xanthium strumarium, pre-emergence
[45] = as §1; format: organism-based; settings: in vivo, 1.6 g a.i/10 a, read-out: mortality
[46] = as §2; format: organism-based; settings: in vivo, 1.6 g a.i/10 a
[47] = as §3; format: organism-based; settings: in vivo, 1.6 g a.i/10 a
[48] = as §4; format: organism-based; settings: in vivo, 6.3 g a.i/10 a, read-out: mortality
Echinochloa crus-galli [49] = assay: Post-emergence herbicidal activity against Echinochloa crus-galli (barnyard grass) assessed as mortality at 1.6 g a.i/10 a applied 11 days after germination as foliar spray; format: functional; settings: 264 h
Echinochloa crus-galli [50] = assay: Post-emergence herbicidal activity against Echinochloa crus-galli (barnyard grass) assessed as mortality at 6.3 g a.i/10 a applied 11 days after germination as foliar spray; format: functional; settings: 264 h
Abutilon theophrasti [51] = assay: Post-emergence herbicidal activity against Abutilon theophrasti (velvetleaf) assessed as mortality at 6.3 g a.i/10 a applied 11 days after germination as foliar spray; format: functional; settings: 264 h
Echinochloa crus-galli [52] = assay: Pre-emergence herbicidal activity against Echinochloa crus-galli (barnyard grass) assessed as mortality at 6.3 g a.i/10 a; format: functional; settings: Echinochloa crus-galli, pre-emergence

For COc1cc(OC)nc(Oc2ccccc2C(=O)O)n1, the ED90 (Xanthium strumarium [1]) was >100 gAi, the ED90 (Echinochloa crus-galli [2]) was 50 gAi and the ED90 (Persicaria nodosa [3]) was 12 gAi. For the same compound, the mortality at 16 g/ha (Xanthium strumarium [4]) was < 5%, the ED20 (Gossypium hirsutum [5]) was 12 gAi and the mortality at 16 g/ha (Abutilon theophrasti [6]) was < 5%. For the same compound, the Activity (Gossypium hirsutum [7]) was “Non-toxic”, the Activity (Zea mays [8]) was “Non-toxic” and the Activity (Glycine max [9]) was “Toxic”. For the same compound, the Activity (Zea mays [10]) was “Toxic”, the ED90 (Echinochloa crus-galli [11]) was 12 gAi and the mortality at 63 g/ha (Ipomoea lacunosa [12]) was < 5%. For the same compound, the “growth inhibition (GI)” value (Cyperus iria [13]) was “Active”, the Activity (Zea mays [14]) was “Toxic” and the “growth inhibition (GI)” value (Cyperus iria [15]) was “Active”. For the same compound, the “growth inhibition (GI)” value (Amaranthus retroflexus [16]) was “Active”, the “growth inhibition (GI)” value (Echinochloa crus-galli [17]) was “Active” and the “growth inhibition (GI)” value (Persicaria nodosa [18]) was “Active”. The “growth inhibition (GI)” value (Digitaria sanguinalis [19]) was “Active”, the mortality at 63 g/ha (Xanthium strumarium [20]) was < 5% and the ED20 (Gossypium hirsutum [21]) was 12 gAi. The Activity (Glycine max [22]) was “Non-toxic”, the ED90 (Persicaria nodosa [23]) was 12 gAi and the mortality at 16 g/ha (Ipomoea lacunosa [24]) was < 5%. For the same compound, the mortality at 16 g/ha (Abutilon theophrasti [25]) was < 5%, the “growth inhibition (GI)” value (Echinochloa crus-galli [26]) was “Active” and the Activity (Gossypium hirsutum [27]) was “Non-toxic”. For the same compound, the ED90 (Amaranthus retroflexus [28]) was “Active”, the Activity (Glycine max [29]) was “Non-toxic” and the ED90 (Ipomoea lacunosa [30]) was >100 gAi. For the same compound, the mortality at 16 g/ha (Ipomoea lacunosa [31]) was < 5%, the “growth inhibition (GI)” value (Amaranthus retroflexus [32]) was “Active” and the “growth inhibition (GI)” value (Chenopodium album [33]) was “Active”. For the same compound, the ED90 (Amaranthus retroflexus [34]) was 12 gAi, the ED90 (Ipomoea lacunosa [35]) was >100 gAi and the “growth inhibition (GI)” value (Digitaria sanguinalis [36]) was “Active”. For the same compound, the ED90 (Xanthium strumarium [37]) was >100 gAi, the mortality at 63 g/ha (Abutilon theophrasti [38]) was < 5% and the “growth inhibition (GI)” value (Persicaria nodosa [39]) was “inactive”. The Activity (Glycine max [40]) was “Toxic”, the Activity (Gossypium hirsutum [41]) was “Toxic” and the “growth inhibition (GI)” value (Chenopodium album [42]) was “Active”. For the same compound, the Activity (Gossypium hirsutum [43]) was “Toxic” and the mortality at 16 g/ha (Xanthium strumarium [44]) was < 5%.

With COc1cc(OC)nc(Oc2cccc(Cl)c2C(=O)O)n1 the ED90 (Xanthium strumarium [1]) was 25 gAi, the ED90 (Echinochloa crus-galli [2]) was 1.5 gAi and the ED90 (Persicaria nodosa [3]) was 0.2 gAi. The ED20 (Gossypium hirsutum [5]) was 0.2 gAi, the mortality at 16 g/ha (Abutilon theophrasti [6]) was > 90% and the Activity (Gossypium hirsutum [7]) was “Non-toxic”. The mortality [45] was > 90%, the mortality at 264 h [46] was > 90% and the ED90 (Echinochloa crus-galli [11]) was “inactive”. For the same compound, the “growth inhibition (GI)” value (Cyperus iria [13]) was “Active”, the mortality at 264 h [47] was > 90% and the “growth inhibition (GI)” value (Cyperus iria [15]) was “Active”. For the same compound, the “growth inhibition (GI)” value (Amaranthus retroflexus [16]) was “Active”, the “growth inhibition (GI)” value (Echinochloa crus-galli [17]) was “Active” and the “growth inhibition (GI)” value (Persicaria nodosa [18]) was “Active”. For the same compound, the “growth inhibition (GI)” value (Digitaria sanguinalis [19]) was “Active”, the ED20 (Gossypium hirsutum [21]) was “Toxic” and the Activity (Glycine max [22]) was “Toxic”. For the same compound, the ED90 (Persicaria nodosa [23]) was 0.4 gAi, the “growth inhibition (GI)” value (Echinochloa crus-galli [26]) was “Active” and the Activity (Gossypium hirsutum [27]) was “Non-toxic”. The ED90 (Amaranthus retroflexus [28]) was 0.4 gAi, the mortality [48] was > 90% and the mortality at 16 g/ha (Echinochloa crus-galli [49]) was > 90%. For the same compound, the ED90 (Ipomoea lacunosa [30]) was 25 gAi, the “growth inhibition (GI)” value (Amaranthus retroflexus [32]) was “Active” and the “growth inhibition (GI)” value (Chenopodium album [33]) was “Active”. The ED90 (Amaranthus retroflexus [34]) was 0.2 gAi, the ED90 (Ipomoea lacunosa [35]) was 0.8 gAi and the mortality at 63 g/ha (Echinochloa crus-galli [50]) was > 90%. For the same compound, the “growth inhibition (GI)” value (Digitaria sanguinalis [36]) was “Active”, the ED90 (Xanthium strumarium [37]) was 1.5 gAi and the mortality at 63 g/ha (Abutilon theophrasti [38]) was > 90%. For the same compound, the mortality at 63 g/ha (Abutilon theophrasti [51]) was > 90%, the “growth inhibition (GI)” value (Persicaria nodosa [39]) was “Active” and the mortality at 63 g/ha (Echinochloa crus-galli [52]) was > 90%. For the same compound, the Activity (Gossypium hirsutum [41]) was “Toxic”, the “growth inhibition (GI)” value (Chenopodium album [42]) was “Active” and the Activity (Gossypium hirsutum [43]) was “Toxic”.
